Results published in patent US20230416688A1, “CHEMICAL CULTURE SYSTEM AND USE THEREOF” (IREGENE THERAPEUTICS LTD, priority 2020, published 2023).

Tests used:
[1] = tested on: human neural cell line ReNcell VM; test: Cyquant cell viability assay, neural cell line, compound concentration screening; assay type: cell-based; settings: only this component's concentration changed
Description: 6-well culture plates were coated with 50 μg/mL polylysine (SIGMA, P6407) and incubated for more than 3 h at 37° C. in a thermostat after plate laying; then further coated with 5 μg/mL Laminin (I2020, SIGMAALDRICH) and incubated for more than 3 h at 37° C. in a thermostat after plate laying. Mouse primary cells and the human neural cell line ReNcell VM were cultured, where mouse primary cell isolation was performed according to the method described in Nature Protocols. Volume 7, pages 1741-1754 (2012). Cell culture conditions were 37° C., 5% carbon dioxide (Panasonic, MCO-18AC), and cell adherent culture. The culture medium of the present invention, Neuralbasal+I0% FBS and N2B27 culture medium were used for comparison, respectively. Cell passage was digested with 0.05% trypsin/EDTA at 37° C. for 5 min, and the cell digestion was terminated with DMEM+10% FBS. […]
(§1) The Cyquant assay is used for quantitative detection of cell viability to compare the effects of different medium components on the physiological state of cells during long-term cell culture. […] Samples were taken on day 1, day 5, day 15 and day 30, and cell viability assays were performed using CyQuant Kit (Invitrogen, X12223) and operated according to the instruction manual, and using SpectraMax i3 Multi-Mode Microplate Reader (VWR, model ID3-STD) for data reading. […]

induced cortical neurons = test: Cyquant cell viability assay during induction of cortical neurons; assay type: cell-based, human; settings: FIG. 6n; cortical neuron induction
Description: For cortical neuron differentiation, 6-well culture plates were coated with 50 μg/mL poly-Lysine (SIGMA, P6407) and incubated for more than 3 h in a 37° C. incubator after plate laying; then further coated with 3 μg/mL laminin (Laminin, 12020, SIGMAALDRICH) and incubated for more than 3 h at 37° C. after plate laying. The induced nerve stem cells obtained in Example 3 was re-inoculated into T25 culture plates at a rate of 1×105 per vial. Neural stem cells were cultured using NouvNeu culture medium at 37° C. and 5% CO2 (Panasonic, MCO-18AC), and the medium was replaced with fresh medium every three days until neurons formation on day 30. In the control experiment, N2B27 medium was used for neuron induction, and the specific operation steps were the same as above.
as §1, with “10,” for “5,”, “35,” for “30,”, “i3Multi-Mode” for “i3 Multi-Mode”, “Model” for “model”

Compound	use range of concentration in the medium (Cyquant) ([1]; FIG. 2d)	use range of concentration in the medium (Cyquant) ([1]; FIG. 2b)	use range of concentration in the medium (Cyquant) (induced cortical neurons)
recombinant human transferrin: recombinant human transferrin, component of the NouvNeu medium	50 to 200 ng/mL		
O=C[C@H](O)[C@@H](O)[C@@H](O)[C@H](O)CO [D(+)-galactose]		5000 to 25000 ng/mL	5 to 25 µg/mL
